What was measured:
[1] = biological target: T1, purified recombinant human Aggrecanase-1 (rAgg1) (Homo sapiens, UniProt O75173); test: In vitro fluorescence screen for Aggrecanase-1 inhibitors; format: biochemical; conditions: Table 1
T1 sequence (O75173 213-837): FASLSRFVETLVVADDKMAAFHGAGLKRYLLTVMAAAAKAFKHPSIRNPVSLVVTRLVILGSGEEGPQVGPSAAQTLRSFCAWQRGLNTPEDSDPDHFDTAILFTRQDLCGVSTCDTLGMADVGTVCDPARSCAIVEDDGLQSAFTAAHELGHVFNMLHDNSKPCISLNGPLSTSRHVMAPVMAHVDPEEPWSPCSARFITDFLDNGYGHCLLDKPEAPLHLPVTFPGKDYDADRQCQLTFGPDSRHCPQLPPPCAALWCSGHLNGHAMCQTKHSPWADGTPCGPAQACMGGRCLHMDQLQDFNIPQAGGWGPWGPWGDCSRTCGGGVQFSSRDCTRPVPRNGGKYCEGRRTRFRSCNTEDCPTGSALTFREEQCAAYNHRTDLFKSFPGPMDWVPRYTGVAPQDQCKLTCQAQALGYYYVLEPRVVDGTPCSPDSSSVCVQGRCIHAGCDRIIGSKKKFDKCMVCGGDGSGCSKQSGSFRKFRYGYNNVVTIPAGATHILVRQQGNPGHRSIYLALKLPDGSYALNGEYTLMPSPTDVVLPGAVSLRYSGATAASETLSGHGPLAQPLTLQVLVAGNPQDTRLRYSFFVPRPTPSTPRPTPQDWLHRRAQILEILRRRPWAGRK

[2] = biological target: T2, purified recombinant human Aggrecanase-2 (Ag2t-Phe628-Strep) (Homo sapiens, UniProt Q9UNA0); test: In vitro fluorescence screen for Aggrecanase-2 inhibitors; format: biochemical; conditions: Table 1; read-out: Agg 2 IC50
T2 construct: the form used is denoted as Ag2t-Phe628-Strep (MW=41,737)
T2 sequence (Q9UNA0 262-628): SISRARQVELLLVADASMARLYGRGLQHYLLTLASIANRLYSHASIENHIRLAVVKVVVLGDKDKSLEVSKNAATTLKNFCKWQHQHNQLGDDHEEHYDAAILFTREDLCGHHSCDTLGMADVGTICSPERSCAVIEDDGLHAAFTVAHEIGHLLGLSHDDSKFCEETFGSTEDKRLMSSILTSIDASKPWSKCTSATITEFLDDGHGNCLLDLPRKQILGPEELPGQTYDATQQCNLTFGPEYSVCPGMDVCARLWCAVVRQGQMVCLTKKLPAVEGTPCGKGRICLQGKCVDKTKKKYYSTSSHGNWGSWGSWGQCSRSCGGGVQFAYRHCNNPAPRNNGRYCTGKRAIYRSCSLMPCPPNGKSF

[3] = biological target: T3, recombinant human catalytic domain of MMP-13 (Homo sapiens, UniProt P45452); test: In vitro fluorescence assay of MMP-13 activity; format: biochemical; conditions: Table 1; unit inferred
T3 construct: catalytic domain of MMP-13 (165 amino acids, residues 104-268, 19 kDa)

[4] = biological target: T4, recombinant human catalytic domain of MMP-14 (Homo sapiens, UniProt P50281); test: In vitro fluorescence assay of MMP-14 activity; format: biochemical; conditions: Table 1; unit inferred
T4 construct: 177 amino acids corresponding to Tyr89-Gly265 of mature human enzyme; purchased Chemicon International, Inc. CC1041

[5] = system: bovine articular cartilage treated with Interleukin 1 alpha (IL-1α); test: Bovine articular cartilage explant cultures: inhibition of degradation of proteoglycan; format: cell-based; conditions: inhibitory effect expressed as percentage, concentration not printed
In short: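 Bovine metacarpal cartilage discs (6 mm), equilibrated in serum-free DMEM-based medium, were treated with 5 ng/ml IL-1 plus compound (working solutions 0.1-10 μg/ml), with medium collected and replaced on days 1, 2 and 3. Released proteoglycan was measured by DMMB absorbance at 520 nm against chondroitin sulphate standards, expressed as μg per mg cartilage, and inhibition given as percentage.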

MMP-1 = biological target: T5, MMP-1 (Homo sapiens, UniProt P03956); test: MMP-1 of Table 1; format: biochemical; conditions: unit inferred
T5 sequence (P03956 100-469): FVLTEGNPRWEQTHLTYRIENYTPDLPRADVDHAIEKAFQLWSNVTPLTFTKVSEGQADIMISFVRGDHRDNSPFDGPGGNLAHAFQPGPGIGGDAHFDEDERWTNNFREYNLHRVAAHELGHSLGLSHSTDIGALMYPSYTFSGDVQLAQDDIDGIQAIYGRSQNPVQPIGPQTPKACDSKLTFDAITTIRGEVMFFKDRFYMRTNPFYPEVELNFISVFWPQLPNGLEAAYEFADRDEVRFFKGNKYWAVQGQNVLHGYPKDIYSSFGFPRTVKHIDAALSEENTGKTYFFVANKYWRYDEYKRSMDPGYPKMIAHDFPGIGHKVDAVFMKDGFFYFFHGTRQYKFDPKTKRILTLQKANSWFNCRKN

In the case of `CC(C)(Cc1ccc(F)cc1)NC(=O)[C@H](CCC(=O)O)NC(=O)c1ccc(-c2ccccc2)cc1` [Example 8OO, N^2-(1,1′-biphenyl-4-ylcarbonyl)-N^1-[2-(4-fluorophenyl)-1,1-dimethylethyl]-L-α-glutamine], the Ki ([1]; enzyme not given, column follows Agg1 IC50, read-out: Ki) is reported as 6 nM, the IC50 ([1]; read-out: Agg1 IC50) is reported as < 30 nM and the IC50 [2] is reported as 44 nM. For the same compound, the IC50 [3] was > 50000 nM, the IC50 [4] was > 200000 nM and the bovine ([5]; Table 1, first of two columns headed bovine) was 87%. For the same compound, the bovine ([5]; Table 1, second of two columns headed bovine) was 40% and the IC50 (MMP-1) was > 200000 nM.
